Measurements published in ChEMBL document CHEMBL1201862, “PubChem BioAssay data set” (2004).
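In this assay, cells in 96-well plates receive the compound at five concentrations for 48 hours. Endpoints are linearly interpolated between the surrounding concentrations. GI50: concentration for 50% inhibition of growth.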 Activity calls are given as the source filed them. Rule as the data show it: active = GI50 up to about 1.1 µM and inactive = higher.

Experiments:
Test in all cases: growth of human tumour cells (NCI), 48 h
SF-268 = system: SF-268
SK-MEL-5 = system: SK-MEL-5
HCT-116 = system: HCT-116
K562 = system: K562
NCI-H226 = system: NCI-H226
MDA-MB-435 = system: MDA-MB-435
UACC-257 = system: UACC-257
OVCAR-3 = system: OVCAR-3
IGROV-1 = system: IGROV-1
CCRF-CEM = system: CCRF-CEM
HL-60 = system: HL-60
M14 = system: M14
OVCAR-5 = system: OVCAR-5
PC-3 = system: PC-3
786-0 = system: 786-0
DU-145 = system: DU-145
SK-MEL-28 = system: SK-MEL-28
OVCAR-8 = system: OVCAR-8
NCI-H522 = system: NCI-H522
A498 = system: A498

Row | Structure (SMILES) | GI50 (SF-268) | GI50 (SK-MEL-5) | GI50 (HCT-116) | GI50 (K562) | GI50 (NCI-H226) | GI50 (MDA-MB-435) | GI50 (UACC-257) | GI50 (OVCAR-3) | GI50 (IGROV-1) | GI50 (CCRF-CEM) | GI50 (HL-60) | GI50 (M14) | GI50 (OVCAR-5) | GI50 (PC-3) | GI50 (786-0) | GI50 (DU-145) | GI50 (SK-MEL-28) | GI50 (OVCAR-8) | GI50 (NCI-H522) | GI50 (A498)
1 | C1=CC2=CC=CC3c4nc5ccc6ccccc6c5nc4C(=C1)C23 (stereo unspecified) | > 100 µM (inactive) | > 100 µM (inactive) | > 100 µM (inactive) | > 100 µM (inactive) | > 100 µM (inactive) | > 100 µM (inactive) | > 100 µM (inactive) | > 100 µM (inactive) | > 100 µM (inactive) | > 100 µM (inactive) | > 100 µM (inactive) | > 100 µM (inactive) | > 100 µM (inactive) | > 100 µM (inactive) | > 100 µM (inactive) | > 100 µM (inactive) | > 100 µM (inactive) | > 100 µM (inactive) | – | –
2 | CCCCCCCCCCCCOCC(COP(=O)(O)OCCN=[N+]=[N-])OC(=O)CCCCCCCCCCC (stereo unspecified) | > 100 µM (inactive) | > 100 µM (inactive) | > 100 µM (inactive) | > 100 µM (inactive) | – | > 100 µM (inactive) | – | > 100 µM (inactive) | – | – | – | > 100 µM (inactive) | > 100 µM (inactive) | > 100 µM (inactive) | > 100 µM (inactive) | > 100 µM (inactive) | > 100 µM (inactive) | > 100 µM (inactive) | > 100 µM (inactive) | > 100 µM (inactive)
3 | Cc1cc2[nH]c3c(C#N)c(-c4ccccc4)c(/N=N/c4ccc(F)cc4)c(=O)n3c2cc1C | 35.9 µM (inactive) | 9.55 µM (inactive) | 25.6 µM (inactive) | – | > 100 µM (inactive) | > 100 µM (inactive) | > 100 µM (inactive) | 3.21 µM (inactive) | – | > 100 µM (inactive) | – | > 100 µM (inactive) | > 100 µM (inactive) | > 100 µM (inactive) | 31 µM (inactive) | – | > 100 µM (inactive) | – | 18.5 µM (inactive) | > 100 µM (inactive)
4 | O=C(N/N=C1\CCc2ccccc2C1)N/N=C1\CCc2ccccc2C1 | > 10 µM (inactive) | – | > 10 µM (inactive) | > 10 µM (inactive) | > 10 µM (inactive) | > 10 µM (inactive) | > 10 µM (inactive) | > 10 µM (inactive) | – | > 10 µM (inactive) | > 10 µM (inactive) | > 10 µM (inactive) | > 10 µM (inactive) | > 10 µM (inactive) | > 10 µM (inactive) | > 10 µM (inactive) | – | > 10 µM (inactive) | > 10 µM (inactive) | –
5 | COc1ccc2c(c1)CC1(O)COc3cc(OC)ccc3C1O2 (stereo unspecified) | > 100 µM (inactive) | 38.8 µM (inactive) | > 100 µM (inactive) | – | > 100 µM (inactive) | > 100 µM (inactive) | 61.8 µM (inactive) | > 100 µM (inactive) | > 100 µM (inactive) | > 100 µM (inactive) | – | > 100 µM (inactive) | > 100 µM (inactive) | > 100 µM (inactive) | > 100 µM (inactive) | > 100 µM (inactive) | – | > 100 µM (inactive) | > 100 µM (inactive) | > 100 µM (inactive)
6 | C=CCC1C(O[Si](C)(C)C(C)(C)C)C(CO[Si](C)(C)C(C)(C)C)OC1n1ccc(=O)[nH]c1=O (stereo unspecified) | – | 1.51 µM (inactive) | 1.06 µM (active) | 1.22 µM (inactive) | 1.51 µM (inactive) | 1.47 µM (inactive) | 1.68 µM (inactive) | 1.6 µM (inactive) | 1.41 µM (inactive) | 0.548 µM (active) | – | 1.42 µM (inactive) | 1.28 µM (inactive) | 1.53 µM (inactive) | 1.15 µM (inactive) | 1.52 µM (inactive) | 1.58 µM (inactive) | 1.7 µM (inactive) | – | 2.03 µM (inactive)
7 | O=C1CN(c2ccccc2)C(=O)CN1CCN1CC(=O)N(c2ccccc2)CC1=O | > 100 µM (inactive) | > 100 µM (inactive) | > 100 µM (inactive) | – | – | > 100 µM (inactive) | > 100 µM (inactive) | > 100 µM (inactive) | > 100 µM (inactive) | – | > 100 µM (inactive) | > 100 µM (inactive) | > 100 µM (inactive) | > 100 µM (inactive) | > 100 µM (inactive) | > 100 µM (inactive) | > 100 µM (inactive) | > 100 µM (inactive) | > 100 µM (inactive) | > 100 µM (inactive)
8 | COc1ccc2c(c1)[C@@H]1c3cc(OC)c(OC)cc3CCN1CCC2 | > 100 µM (inactive) | 36.7 µM (inactive) | 76.2 µM (inactive) | 65.3 µM (inactive) | – | > 100 µM (inactive) | 19.7 µM (inactive) | > 100 µM (inactive) | > 100 µM (inactive) | 87.7 µM (inactive) | > 100 µM (inactive) | > 100 µM (inactive) | > 100 µM (inactive) | 73.5 µM (inactive) | > 100 µM (inactive) | > 100 µM (inactive) | > 100 µM (inactive) | > 100 µM (inactive) | > 100 µM (inactive) | > 100 µM (inactive)
9 | Cc1nc(Cl)c(CBr)c(Cl)n1 | 2.69 µM (inactive) | 0.914 µM (active) | 0.285 µM (active) | 0.21 µM (active) | 2.7 µM (inactive) | 1.64 µM (inactive) | 0.832 µM (active) | 0.596 µM (active) | 1.72 µM (inactive) | 0.152 µM (active) | – | 0.427 µM (active) | 2.05 µM (inactive) | 1.63 µM (inactive) | 0.275 µM (active) | 2.58 µM (inactive) | 1.49 µM (inactive) | 1.72 µM (inactive) | 0.518 µM (active) | 11.7 µM (inactive)
10 | C/C(N)=C/C(=O)c1[nH]c(C(=O)O)cc1C1CCN(Cc2ccccc2)C1=O (stereo unspecified) | 22.3 µM (inactive) | 15.3 µM (inactive) | 22.2 µM (inactive) | 20.8 µM (inactive) | – | 40.6 µM (inactive) | 28.6 µM (inactive) | 20.6 µM (inactive) | 27.2 µM (inactive) | – | – | 18.8 µM (inactive) | 30.2 µM (inactive) | 37.6 µM (inactive) | 26.7 µM (inactive) | 22.1 µM (inactive) | 24.3 µM (inactive) | 21.8 µM (inactive) | 20.6 µM (inactive) | 65.3 µM (inactive)
11 | CN(CCCCCl)P(=O)(OCc1ccc([N+](=O)[O-])o1)OCC1OC(n2ccc(N)nc2=O)C(O)C1O (stereo unspecified) | 7.6 µM (inactive) | 0.097 µM (active) | 3.68 µM (inactive) | 2.99 µM (inactive) | 11.4 µM (inactive) | 1.98 µM (inactive) | 2.21 µM (inactive) | 2.1 µM (inactive) | 3.08 µM (inactive) | – | 4.15 µM (inactive) | 7.48 µM (inactive) | 14.8 µM (inactive) | 2.39 µM (inactive) | 13.4 µM (inactive) | 6.93 µM (inactive) | 2.33 µM (inactive) | 2.82 µM (inactive) | 3.15 µM (inactive) | –
12 | Fc1cccc(Cl)c1C1SCc2nc3cc4ccccc4cc3n21 (stereo unspecified) | > 100 µM (inactive) | – | 68.5 µM (inactive) | > 100 µM (inactive) | 33.8 µM (inactive) | > 100 µM (inactive) | > 100 µM (inactive) | 66.1 µM (inactive) | 46.9 µM (inactive) | > 100 µM (inactive) | – | > 100 µM (inactive) | > 100 µM (inactive) | > 100 µM (inactive) | 39.4 µM (inactive) | > 100 µM (inactive) | > 100 µM (inactive) | 39.4 µM (inactive) | – | –
13 | CC(=O)c1ccc(/N=N/c2ccc3nonc3c2N)cc1 | > 100 µM (inactive) | > 100 µM (inactive) | > 100 µM (inactive) | > 100 µM (inactive) | > 100 µM (inactive) | > 100 µM (inactive) | > 100 µM (inactive) | 88.3 µM (inactive) | > 100 µM (inactive) | > 100 µM (inactive) | > 100 µM (inactive) | 52.8 µM (inactive) | > 100 µM (inactive) | > 100 µM (inactive) | > 100 µM (inactive) | > 100 µM (inactive) | > 100 µM (inactive) | > 100 µM (inactive) | – | –
14 | COc1cccc(C2c3cc4c(cc3OC(N3CCCCC3)C2C)OCO4)c1OC (stereo unspecified) | 8.2 µM (inactive) | 6.47 µM (inactive) | 2.72 µM (inactive) | 3.63 µM (inactive) | 3.93 µM (inactive) | 11.3 µM (inactive) | 5.94 µM (inactive) | 4.15 µM (inactive) | 5.16 µM (inactive) | 3.46 µM (inactive) | – | 12.7 µM (inactive) | 17.7 µM (inactive) | 5.58 µM (inactive) | 72.1 µM (inactive) | 3.64 µM (inactive) | 16.3 µM (inactive) | > 100 µM (inactive) | 5.21 µM (inactive) | 9.42 µM (inactive)
15 | C=C1C(=O)C23CC1CCC2C12CO[C@H](O)[C@H]1C(C)(C)[C@H](OC(C)=O)C[C@H]2OC3=O (stereo partly specified) | 14.7 µM (inactive) | 30.8 µM (inactive) | 14.8 µM (inactive) | 5.9 µM (inactive) | > 100 µM (inactive) | 21.5 µM (inactive) | 30.3 µM (inactive) | 22.5 µM (inactive) | 31.9 µM (inactive) | 6.14 µM (inactive) | 16.6 µM (inactive) | 25.4 µM (inactive) | 18.8 µM (inactive) | > 100 µM (inactive) | 16 µM (inactive) | 25.5 µM (inactive) | 17.1 µM (inactive) | 30.6 µM (inactive) | 1.26 µM (inactive) | –
16 | COC(=O)Nc1nc2cc(C(=O)c3cccs3)ccc2[nH]1 [NOCODAZOLE] | 0.0893 µM (active) | – | 0.0152 µM (active) | < 0.0118 µM (active) | 0.0625 µM (active) | 0.0111 µM (active) | < 0.148 µM (active) | – | 0.0242 µM (active) | 0.0145 µM (active) | 0.0113 µM (active) | 0.014 µM (active) | 20.7 µM (inactive) | 0.0141 µM (active) | 0.0789 µM (active) | – | 0.0957 µM (active) | 0.029 µM (active) | – | 0.0196 µM (active)
